Measurements as given in ChEMBL document CHEMBL3351946, “Design and synthesis of potent antitumor water-soluble phenyl N-mustard-benzenealkylamide conjugates via a bioisostere approach” (Eur J Med Chem, 2014).

Assays:
CCRF-CEM [1] = assay: Cytotoxicity against human CCRF-CEM cells assessed as growth inhibition after 72 hrs by Alamar Blue assay; format: functional, cell-based
CCRF-CEM [2] = assay: Cytotoxicity against vinblastine-resistant human CCRF-CEM cells assessed as growth inhibition after 72 hrs by Alamar Blue assay; format: functional, cell-based
[3] = Cytotoxicity against human PC3 cells assessed as growth inhibition after 72 hrs by Alamar Blue assay; format: functional, cell-based; settings: PC-3, 72 h
[4] = Cytotoxicity against human H460 cells assessed as growth inhibition after 72 hrs by Alamar Blue assay; format: functional, cell-based; settings: NCI-H460, 72 h
[5] = Cytotoxicity against human H1299 cells assessed as growth inhibition after 72 hrs by Alamar Blue assay; format: functional, cell-based; settings: NCI-H1299, 72 h
[6] = Cytotoxicity against human HCT116 cells assessed as growth inhibition after 72 hrs by Alamar Blue assay; format: functional, cell-based; settings: HCT-116, 72 h
CCRF-CEM [7] = assay: Resistance factor, ratio of IC50 for vinblastine-resistant human CCRF-CEM cells to IC50 for human CCRF-CEM cells; format: functional
HT-29 = assay: Cytotoxicity against human HT-29 cells assessed as growth inhibition after 72 hrs by Alamar Blue assay; format: functional, cell-based; settings: HT-29, 72 h
[8] = Cytotoxicity against human H3347 cells assessed as growth inhibition after 72 hrs by Alamar Blue assay; format: functional, cell-based; settings: H3347, 72 h
[9] = Cytotoxicity against human DLD1 cells assessed as growth inhibition after 72 hrs by Alamar Blue assay; format: functional, cell-based; settings: DLD-1, 72 h

| SMILES | IC50 (CCRF-CEM [1]) [µM] | IC50 (CCRF-CEM [2]) [µM] | IC50 [3] [µM] | IC50 [4] [µM] | IC50 [5] [µM] | IC50 [6] [µM] | Ratio IC50 (CCRF-CEM [7]) | IC50 (HT-29) [µM] | IC50 [8] [µM] | IC50 [9] [µM] |
| --- | --- | --- | --- | --- | --- | --- | --- | --- | --- | --- |
| CC[C@]1(O)C[C@H]2CN(CCc3c([nH]c4ccccc34)[C@@](C(=O)OC)(c3cc4c(cc3OC)N(C=O)[C@H]3[C@@](O)(C(=O)OC)[C@H](OC(C)=O)[C@]5(CC)C=CCN6CC[C@]43[C@@H]65)C2)C1 [VINCRISTINE] | 0.00232 | 2.13 |  |  |  |  |  |  |  |  |
| CN(C)CCNC(=O)c1ccc(NC(=O)Nc2ccc(N(CCCl)CCCl)cc2)cc1 | 0.57 | 106 | 6.25 | 31.6 | 32 | 5.64 | 186.47 |  |  |  |
| O=C(Nc1ccc(C(=O)NCCN2CCCC2)cc1)Nc1ccc(N(CCCl)CCCl)cc1 | 0.56 | 133 | 4.53 | 17.8 | 18.5 | 6.48 | 237.2 |  |  |  |
| CC[C@]1(O)C[C@@H]2CN(CCc3c([nH]c4ccccc34)[C@@](C(=O)OC)(c3cc4c(cc3OC)N(C)[C@H]3[C@@](O)(C(=O)OC)[C@H](OC(C)=O)[C@]5(CC)C=CCN6CC[C@]43[C@@H]65)C2)C1 [VINBLASTINE] | 0.0013 | 0.67 |  |  |  |  |  |  |  |  |
| O=C(CCN1CCCC1)Nc1cccc(NC(=O)Nc2ccc(N(CCCl)CCCl)cc2)c1 | 0.67 | 27.1 | 10.3 | 9.84 | 4.33 | 5.11 | 40.42 |  |  |  |
| O=C(CN1CCCC1)Nc1cccc(NC(=O)Nc2ccc(N(CCCl)CCCl)cc2)c1 | 3.41 | 0.97 | 12.8 | 6.55 | 9.36 | 5.41 | 0.28 |  |  |  |
| O=C(CCN1CCOCC1)Nc1ccc(NC(=O)Nc2ccc(N(CCCl)CCCl)cc2)cc1 | 1.06 | 23.4 | 9.74 | 3.95 | 15.2 | 7.02 | 22.09 |  |  |  |
| O=C(CCN1CCCC1)Nc1ccc(NC(=O)Nc2ccc(N(CCCl)CCCl)cc2)cc1 | 0.28 | 17.1 | 3.48 | 1.03 | 6.43 | 2.87 | 61.14 | 14.1 | 3.68 | 13.9 |
| O=C(CN1CCOCC1)Nc1ccc(NC(=O)Nc2ccc(N(CCCl)CCCl)cc2)cc1 | 1.13 | 18.4 | 16 | 4.74 | 18.6 | 6.67 | 16.27 |  |  |  |
| O=C(CN1CCC(N2CCCCC2)CC1)Nc1cccc(NC(=O)Nc2ccc(N(CCCl)CCCl)cc2)c1 | 30.4 | 1.81 | 25.9 | 12.3 | 12.8 | 6.15 | 0.06 |  |  |  |
| O=C(Nc1ccc(N(CCCl)CCCl)cc1)Nc1cccc(C(=O)NCCN2CCCCC2)c1 | 0.57 | 28.4 | 4.54 | 12.8 | 10.3 | 5.47 | 49.91 |  |  |  |
| CCN(CC)CC(=O)Nc1cccc(NC(=O)Nc2ccc(N(CCCl)CCCl)cc2)c1 | 2.01 | 1.38 | 13 | 5.67 | 11.7 | 4.62 | 0.69 |  |  |  |
| O=C(CN1CCC(N2CCCCC2)CC1)Nc1ccc(NC(=O)Nc2ccc(N(CCCl)CCCl)cc2)cc1 | 1.14 | 52.2 | 7.24 | 14.9 | 14.4 | 4.24 | 45.8 |  |  |  |
| CN(C)CCC(=O)Nc1cccc(NC(=O)Nc2ccc(N(CCCl)CCCl)cc2)c1 | 0.52 | 14.4 | 13.5 | 16.8 | 8.99 | 3.28 | 27.67 |  |  |  |
| CN(C)CC(=O)Nc1cccc(NC(=O)Nc2ccc(N(CCCl)CCCl)cc2)c1 | 0.78 | 2.7 | 19 | 8.74 | 10.6 | 9.56 | 3.46 |  |  |  |
| O=C(Nc1ccc(N(CCCl)CCCl)cc1)Nc1cccc(C(=O)NCCN2CCCC2)c1 | 0.53 | 126 | 6.54 | 34.1 | 18.7 | 4.9 | 238.42 |  |  |  |
| O=C(CN1CCCCC1)Nc1ccc(NC(=O)Nc2ccc(N(CCCl)CCCl)cc2)cc1 | 0.31 | 1.45 | 2.24 | 1.05 | 2.52 | 0.99 | 4.68 | 11.8 | 1.16 | 4.53 |
| CN(C)CCC(=O)Nc1ccc(NC(=O)Nc2ccc(N(CCCl)CCCl)cc2)cc1 |  |  |  |  |  |  |  | 23.6 | 2.86 | 9.84 |
| O=C(CCN1CCOCC1)Nc1cccc(NC(=O)Nc2ccc(N(CCCl)CCCl)cc2)c1 | 3.1 | 4.84 | 35.5 | 38.5 | 15.9 | 16.8 | 1.56 |  |  |  |
| O=C(CN1CCCC1)Nc1ccc(NC(=O)Nc2ccc(N(CCCl)CCCl)cc2)cc1 | 0.26 | 2 | 3.52 | 0.95 | 3.41 | 1.33 | 7.69 | 12.3 | 1.53 | 4.37 |
| O=C(CCN1CCC(N2CCCCC2)CC1)Nc1ccc(NC(=O)Nc2ccc(N(CCCl)CCCl)cc2)cc1 | 0.72 | 120 | 30 | 14.5 | 36 | 11.1 | 166.17 |  |  |  |
| O=C(CCN1CCC(N2CCCCC2)CC1)Nc1cccc(NC(=O)Nc2ccc(N(CCCl)CCCl)cc2)c1 | 1.63 | 1.53 | 22.1 | 14.2 | 11 | 15.7 | 0.94 |  |  |  |
| O=C(CN1CCOCC1)Nc1cccc(NC(=O)Nc2ccc(N(CCCl)CCCl)cc2)c1 | 3.87 | 1.32 | 35.8 | 19.5 | 26.4 | 13 | 0.34 |  |  |  |
| CCN(CC)CCC(=O)Nc1cccc(NC(=O)Nc2ccc(N(CCCl)CCCl)cc2)c1 | 0.86 | 13 | 13 | 6.79 | 5.77 | 3.21 | 15.62 |  |  |  |
| CCN(CC)CCC(=O)Nc1ccc(NC(=O)Nc2ccc(N(CCCl)CCCl)cc2)cc1 | 0.3 | 8.27 | 2.47 | 1.83 | 10.3 | 3.08 | 27.57 | 19.3 | 1.03 | 7.82 |
| O=C(CCN1CCCCC1)Nc1ccc(NC(=O)Nc2ccc(N(CCCl)CCCl)cc2)cc1 |  | 6.2 | 2.28 | 1.58 | 3.03 | 2.41 |  | 12.3 | 2.41 | 6.5 |
| O=c1[nH]cc(F)c(=O)[nH]1 [FLUOROURACIL] |  |  |  |  |  |  |  | 24.9 | 11.6 | 29.1 |
| O=C(Nc1ccc(C(=O)NCCN2CCCCC2)cc1)Nc1ccc(N(CCCl)CCCl)cc1 | 0.43 | 48.8 | 4.25 | 9.44 | 7.58 | 5.25 | 113.58 |  |  |  |
| O=C(CN1CCCCC1)Nc1cccc(NC(=O)Nc2ccc(N(CCCl)CCCl)cc2)c1 | 1.35 | 1.33 | 10.1 | 5.62 | 8.55 | 7.5 | 0.99 |  |  |  |
| O=C(CCN1CCCCC1)Nc1cccc(NC(=O)Nc2ccc(N(CCCl)CCCl)cc2)c1 | 0.39 | 6.01 | 5.73 | 7.88 | 4.63 | 3.51 | 15.41 |  |  |  |
